The target of one data set is T1, human CYP3A4 (Homo sapiens, UniProt P08684).
T1 construct: human CYP3A4 using liver microsomes (0.1 mg/mL); from tissue; host or cells: liver microsomes
T1 sequence (P08684 whole entry): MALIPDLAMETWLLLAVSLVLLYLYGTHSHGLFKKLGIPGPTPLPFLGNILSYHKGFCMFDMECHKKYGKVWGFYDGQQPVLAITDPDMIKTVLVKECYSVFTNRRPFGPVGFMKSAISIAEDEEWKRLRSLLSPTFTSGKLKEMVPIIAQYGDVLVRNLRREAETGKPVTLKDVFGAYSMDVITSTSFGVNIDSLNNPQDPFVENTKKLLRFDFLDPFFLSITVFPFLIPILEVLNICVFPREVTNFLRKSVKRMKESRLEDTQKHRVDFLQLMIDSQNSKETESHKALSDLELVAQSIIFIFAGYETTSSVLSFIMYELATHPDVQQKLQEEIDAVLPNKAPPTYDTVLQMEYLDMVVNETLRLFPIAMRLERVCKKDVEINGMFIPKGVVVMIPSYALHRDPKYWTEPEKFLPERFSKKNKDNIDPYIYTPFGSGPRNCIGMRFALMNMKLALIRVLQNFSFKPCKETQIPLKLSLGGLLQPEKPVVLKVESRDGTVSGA
The experiment in a line: Time-dependent inhibition assay (IC50 shift), liver microsomes. Type of data set: in vitro ADME. Conditions: 8 concentrations 0 to 10 μmol/L, 30 min pre-incubation; 3 μmol/L midazolam and 15.6 μmol/L testosterone probes. How it is done: One of these approaches uses multiple test compound concentrations at a single incubation time, e.g. the “IC50 shift” approach. In an IC50 shift experiment, the IC50 is determined for a CYP marker activity before and after the test compound has been incubated with enzyme and the co-factor nicotinamide adenine dinucleotide phosphate (NADPH) for a set preincubation time (Grimm et al, 2009).
The IC50 shift approach was used to determine whether compounds are time-dependent inhibitors of human CYP3A4 using liver microsomes (0.1 mg/mL). A 30-minute pre-incubation time point was selected, where compounds (9 concentrations, 0 to 30 μmol/L) are incubated at 37° C. in presence and absence of 1 mmol/L NADPH. Following the pre-incubation period, 5 μmol/L midazolam (the probe substrate) was added and formation of hydroxymidazolam was measured by high-performance liquid chromatography-mass spectrometry (LC-MS/MS) analysis following a 5 minute incubation period. Any decrease in the formation of hydroxymidazolam, in peak area ratios to vehicle control, was used to calculate three IC50 values (0 min pre-incubation, 30 min pre-incubation with NADPH, and 30 min pre-incubation without NADPH). […] Assays were performed in duplicate, and mifepristone was used as positive control. In Table 3, “Yes” indicates a TDI shift greater than or equal to 3. “No” indicates a TDI shift greater than or equal to 1 and less than 3.
The IC50 shift approach was also used to determine whether Compound 69 of PCT International Application Publication No. WO/2016/196346 is a time-dependent inhibitor of human CYP3A4 using liver microsomes. Similar to the experimental design described above, a 30-minute pre-incubation time point was selected. Minor variations to the method described above were that Compound 69 of PCT International Application Publication No. WO/2016/196346 was tested at 8 concentrations (0 to 10 μmol/L). Following the pre-incubation period, 3 μmol/L midazolam was added and formation of hydroxymidazolam was measured following a 2 minute incubation period. Since under these experimental conditions, the formation of hydroxymidazolam followed first order kinetics (considered as a linear process), these changes in assay design are not expected to impact the IC50 determinations. In parallel, the IC50 shift assay was also performed with 15.6 μmol/L testosterone (0.05 mg/mL liver microsomes, 10 minute incubation) as second probe substrate. Assays for both probe substrates were performed in triplicate, and mifepristone was used as positive control.
On the technique in general: Liver microsomes are a subcellular fraction often used to study metabolism.
Take `CN(C)C(=O)/C=C/CNCCOc1ccc(/C(=C(/CC(F)(F)F)c2ccccc2)c2ccc3[nH]nc(F)c3c2)cc1` [reference compound]: the “CYP3A4 TDI shift” value was “greater than 3”.

Staying with this data set, now noted: IC50 shift; human liver microsomes, 30 min pre-incubation, midazolam probe.
With `Cl.NC(=O)/C=C/CNCCOc1ccc(/C(=C(/CC(F)(F)F)c2ccccc2)c2ccc3[nH]nc(F)c3c2)cn1` [Compound 56, (E)-4-((2-((5-((Z)-4,4,4-trifluoro-1-(3-fluoro-1H-indazol-5-yl)-2-phenylbut-1-en-1-yl)pyridin-2-yl)oxy)ethyl)amino)but-2-enamide], the “CYP3A4 TDI” value was “No (“No” indicates a TDI shift greater than or equal to 1 and less than 3)”. The same measure, in the same setting: next, `Cl.NC(=O)/C=C/CNCCOc1ccc(/C(=C(/CC(F)(F)F)c2ccccc2)c2ccc3[nH]nc(F)c3c2)cc1` [Compound 57, (E)-4-((2-(4-((E)-4,4,4-trifluoro-1-(3-fluoro-1H-indazol-5-yl)-2-phenylbut-1-en-1-yl)phenoxy)ethyl)amino)but-2-enamide]: “No (“No” indicates a TDI shift greater than or equal to 1 and less than 3)”; `CC/C(=C(/c1ccc(OCCNC/C=C/C(=O)NC)nc1)c1ccc2[nH]ncc2c1)c1ccc(F)cc1Cl.Cl` [Compound 59, (E)-4-((2-((5-((Z)-2-(2-chloro-4-fluorophenyl)-1-(1H-indazol-5-yl)but-1-en-1-yl)pyridin-2-yl)oxy)ethyl)amino)-N-methylbut-2-enamide]: “Yes (“Yes” indicates a TDI shift greater than or equal to 3)”.

For the compound `O=C(/C=C/CNCCOc1ccc(/C(=C(/CC(F)(F)F)c2ccccc2)c2ccc3[nH]nc(F)c3c2)cn1)N1CCC1` [Compound 60, (E)-1-(azetidin-1-yl)-4-((2-((5-((Z)-4,4,4-trifluoro-1-(3-fluoro-1H-indazol-5-yl)-2-phenylbut-1-en-1-yl)pyridin-2-yl)oxy)ethyl)amino)but-2-en-1-one], the “CYP3A4 TDI” value is “No (“No” indicates a TDI shift greater than or equal to 1 and less than 3)”. On to `CNC(=O)/C=C/CNCCCOc1ccc(/C(=C(/CC(F)(F)F)c2ccccc2)c2ccc3[nH]nc(F)c3c2)cn1.Cl` [Compound 61], for which the “CYP3A4 TDI” value is “No (“No” indicates a TDI shift greater than or equal to 1 and less than 3)”.

The record behind these values is US20200255415A1, “TETRASUBSTITUTED ALKENE COMPOUNDS AND THEIR USE FOR THE TREATMENT OF BREAST CANCER” (Eisai R&D Management Co., Ltd., priority 2016, published 2020).
